This note sets out measurements from patent US11246907B2, “Immunosuppressive agents and their use in therapy” (Norwegian University of Science and Technology, priority 2013, dated 2022).

The subject of one series is JJN-3 cells. The series is described as follows: Cell survival (MTT) assay, multiple myeloma cell line JJN-3. The note with it: 6 μM ATX-101 with 5 μM LY294002 or 10 μM SB20358. The format is cell-based. How it is done: Phosphorylated kinase levels were corrected for loading differences (β-tubulin) and normalized to untreated control cells. Data is from three independent experiments (mean±SD).
The multiple myeloma cell lines JJN-3 (gift from J. Ball, University of Birmingham, United Kingdom) were grown in RPMI 1640 (Sigma-Aldrich, Schnelldorf, Germany) supplemented with 10% FCS, 2 mM glutamine (Sigma-Aldrich), 2.5 μg/ml amphotericin B (Sigma-Aldrich) and 100 μg/ml gentamicin (Invitrogen, Carlsbad, Calif., USA). HaCaT cells (spontaneously transformed keratinocytes) were cultured in DMEM (Sigma-Aldrich) containing FCS, glutamine, amphotericin B, and gentamicin. All cells were cultured at 37° C. in a humidified atmosphere of 5% CO2.
(§1) Cells were seeded into 96-well plates and ATX-101, kinase inhibitors (SB203580 and BIRB0796), and polyIC were added alone or in combination at the indicated concentrations. Cells were exposed continuously and harvested every day for the next four days using the MTT (3-(4.5-Dimethylthiazol-2-yl)-2.5 diphenyl-tetrazolium bromide) assay (Gilljam et al., 2009, supra). The average from at least 4 wells was used to calculate cell survival.

In the next series the test system is RPMI-8226. The series is described as follows: Cell growth/cytotoxicity, multiple myeloma cell line RPMI-8226. The format is cell-based. As for the experimental part: as §1
To further elucidate whether ATX-101 directly affected the MAPK and PI3K pathways, we analyzed the phosphorylation levels of downstream kinases in JJN-3 cells at different time points after ATX-101 addition. The phosphorylation of Akt and the p70 S6 kinase (downstream of mTOR) were both decreased by ATX-101 treatment.

Series [1] concerns Akt Ser473 phosphorylation. The series is described as follows: Western blot of Akt Ser473 phosphorylation in JJN-3 cells. The format is cell-based. The note with it: 6 μM ATX-101, 4, 8, 24 h. (In general: In western blotting, separated proteins are transferred to a membrane and probed.)
For series [2], the system named is ERK1 Thr202/Tyr204 and ERK2 Thr185/Tyr187 phosphorylation. Kind of series: Western blot of ERK1/2 phosphorylation in JJN-3 cells. The note with it: 6 μM ATX-101, 4, 8, 24 h. The format is cell-based.
In another series the test system is IFN-β. The series is described as follows: IFN-β ELISA on supernatants of stimulated monocytes. The note with it: LPS- and polyIC-stimulated monocytes; 4 μM (donor 1: 6 μM), 4 h. The format is cell-based, human. As for the experimental part:
Measured cytokine levels were normalized to cytokine levels from monocytes stimulated with TLR ligand alone. A two fold or higher increase in cytokine level after TLR stimulation was defined as cytokine induction. […] Isolated monocytes were stimulated with 10 ng/ml LPS and 40 μg/ml polyIC alone and in combination with 4 μM ATX-101 for 4 h. […] DRAQS was used for nuclear staining. Bar, 5 μm.
Peripheral blood mononuclear cells were isolated from A+ buffy coats (Blood Bank, St. Olav's University Hospital, Trondheim, Norway) by density gradient centrifugation (Lymphoprep; Axis-Shield PoC, Oslo, Norway). Mononucleated cells were seeded at 4 million cells/ml in serum-free RPMI 1640 supplemented with glutamine and gentamicin. […]
Monocytes were stimulated as described above. IFN-β was measured in supernatants with the VeriKine-HSTMHuman IFN-β Serum ELISA kit (Pestka Biomedical Laboratories, Piscataway, N.J., USA) according to the manufacturer's instructions with the following adaptions: the amount of supernatant was doubled from 50 to 100 μl; sample buffer was reduced from 50 to 25 μl; and antibody solution was reduced from 50 to 25 μl (reducing assay diluent, keeping same volume of antibody concentrate and diluent additive). The OD was measured at 450 nm.
A general note: In an ELISA, binding on a coated surface is turned into a signal by an enzyme label.

For another series, the target named is PCNA (Homo sapiens, UniProt P12004). The series is described as follows: Microscale thermophoresis (MST) of peptide interaction with PCNA. The format is binding. As for the experimental part: Microscale thermophoresis (MST) was used to determine the dissociation constant for various APIM containing peptides.
PCNA, sequence (P12004 whole entry): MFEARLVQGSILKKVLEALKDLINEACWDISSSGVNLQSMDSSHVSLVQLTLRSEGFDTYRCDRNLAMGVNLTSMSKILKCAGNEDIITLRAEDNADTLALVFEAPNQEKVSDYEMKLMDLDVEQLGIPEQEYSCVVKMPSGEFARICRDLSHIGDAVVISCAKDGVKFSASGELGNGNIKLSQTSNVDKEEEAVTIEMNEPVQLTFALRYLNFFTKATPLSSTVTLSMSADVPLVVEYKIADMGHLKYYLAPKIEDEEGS
PCNA was labeled with a fluorescent molecule. The concentration of PCNA was kept constant, whereas dilutions of each APIM containing peptide were prepared (1:1).
A general note: MST reads how a fluorescent partner responds to local heating, with and without ligand.

Ends that are not written are not given here.

Ac-MDRWLVKWKKKRKIRRRRRRRRRRR [ATX-101]: the “growth-inhibitory effect of kinase inhibitors in combination with ATX-101 (cell growth, MTT)” value with JJN-3 cells is “increased the growth-inhibitory effect of p38 MAPK and class I PI3K inhibitors”. Further, in the series with RPMI-8226, the “cytotoxic effects of melphalan in combination with kinase inhibitors and ATX-101” value is on record as “enhanced the cytotoxic effects of melphalan”; the “growth-inhibitory effects of ERK5 and MEK1 inhibitors in combination with ATX-101” value is “increased the growth-inhibitory effects of ERK5 and MAPK kinase 1 (MEK1) inhibitors”. In addition, the “phosphorylation of Akt” value in series [1] was “decreased”. For the same substance, the ERK1/2 phosphorylation entry in series [2] is “transient increase”. Further, the IFN-β secretion result in the series with IFN-β is “decreased the IFN-β secretion”. For the same substance, on PCNA, the “interaction with PCNA by MST (in words)” value is on record as “stronger interactions with PCNA than ATX-A”.
